Paper PMC10218941, “Design, Synthesis, Antiproliferative Actions, and DFT Studies of New Bis–Pyrazoline Derivatives as Dual EGFR/BRAF^V600E Inhibitors” (International Journal of Molecular Sciences, 2023)
“And” between values parts separate entries of the source, which are not always exact repeats. Equal values may be shown once.

What was measured:
Bax = Bax level assay; assay type: cell-based, human; details: MCF-7 cells; for Bax Fold Change: versus untreated control
Method: Additionally, the effects of compounds 12 and 17 on the levels of caspase-8, Bax, and Bacl-2 in the MCF-7 cancer cell line and staurosporine as a control were examined. […]
Cells were obtained from American Type Culture Collection, cells were grown in RPMI 1640 containing 10% fetal bovine serum at 37°C, stimulated with the compounds to be tested for caspase8, and lysed with Cell Extraction Buffer. This lysate was diluted in Standard Diluent Buffer over the range of the assay and measured for human active caspase-8 content. […]
4.2.5. Bax activation assay
Bring all reagents, except the human Bax-α Standard, to room temperature for at least 30 minutes prior to opening. The human Bax-α Standard solution should not be left at room temperature for more than 10 minutes. All standards, controls and samples should be run in duplicate. Refer to the Assay Layout Sheet to determine the number of wells to be used and put any remaining wells with the desiccant back into the pouch and seal the ziploc. Store unused wells at 4 °C. Pipet 100 μL of Assay Buffer into the S0 (0 pg/mL standard) wells. Pipet 100 μL of Standards #1 through #6 into the appropriate wells. Pipet 100 μL of the Samples into the appropriate wells. Tap the plate gently to mix the contents. Seal the plate and incubate at room temperature on a plate shaker for 1 hour at ~500 rpm. Empty the contents of the wells and wash by adding 400 μL of wash solution to every well. Repeat the wash 4 more times for a total of 5 washes. After the final wash, empty or aspirate the wells and firmly tap the plate on a lint free paper towel to remove any remaining wash buffer. Pipet 100 μL of yellow Antibody into each well, except the Blank. Seal the plate and incubate at room temperature on a plate shaker for 1 hour at ~500 rpm. Empty the contents of the wells and wash by adding 400 μL of wash solution to every well. Repeat the wash 4 more times for a total of 5 washes. After the final wash, empty or aspirate the wells and firmly tap the plate on a lint free paper towel to remove any remaining wash buffer. Add 100 μL of blue Conjugate to each well, except the Blank. Seal the plate and incubate at room temperature on a plate shaker for 30 minutes at ~500 rpm. Empty the contents of the wells and wash by adding 400 μL of wash solution to every well. Repeat the wash 4 more times for a total of 5 washes. After the final wash, empty or aspirate the wells and firmly tap the plate on a lint free paper towel to remove any remaining wash buffer. Pipet 100 μL of Substrate Solution into each well. Incubate for 30 minutes at room temperature on a plate shaker at ~500 rpm. Pipet 100 μL Stop Solution to each well. Blank the plate reader against the Blank wells, read the optical density at 450 nm. Calculate the average net Optical Density (OD) bound for each standard and sample by subtracting the average Blank OD from the average OD for each standard and sample.
Using linear graph paper, plot the Average Net OD for each standard versus Bax concentration in each standard. Approximate a straight line through the points. The concentration of Bax in the unknowns can be determined by interpolation. […]
Cover with a plate cover and incubate at room temperature, on a microplate shaker at 100 rpm if available, for 2 hours. Remove plate cover and empty the wells.
Wash microwell strips 3 times as described in step 2. Add 100 μL of diluted Streptavidin-HRP to all wells, including the blank wells. Cover with a plate cover and incubate at room temperature, on a microplate shaker at 100 rpm if available, for 1 hour. Remove plate cover and empty the wells.
Wash microwell strips 3 times as described in step 2. Proceed to the next step. Pipette 100 μl of mixed TMB Substrate Solution to all wells, including the blanks. Incubate the microwell strips at room temperature (18° to 25°C) for about 15 minutes, if available on a rotator set at 100 rpm.
Avoid direct exposure to intense light. […]

caspase-3 = experiment: Caspase 3 activation assay; assay type: cell-based, human; details: MCF-7 cells; for Caspase–3 Fold Change: versus untreated control
Excerpt: Compounds 12 and 17 were studied for their effects on caspase-3 levels in MCF-7 (breast cancer cell line) and staurosporine as a reference (503.00 ± 4 pg/mL). […] The aforementioned results imply that caspase-3 overexpression may be a contributing factor in the antiproliferative effects of the investigated compounds. […]
4.2.3. Caspase-3 activation assay
Allow all reagents to reach room temperature before use. Gently mix all liquid reagents prior to use. Determine the number of 8-well strips needed for the assay. Insert these in the frame(s) for current use. Add 100 μl of the Standard Diluent Buffer to the zero standard wells. Well(s) reserved for chromogen blank should be left empty. Add 100 μl of standards and controls or diluted samples to the appropriate microtiter wells. The sample dilution chosen should be optimized for each experimental system. Tap gently on side of plate to mix. Cover wells with plate cover and incubate for 2 hours at room temperature. Thoroughly aspirate or decant solution from wells and discard the liquid, Wash wells 4 times. Pipette 100 μl of Caspase-3 (Active) Detection Antibody solution into each well except the chromogen blank(s). Tap gently on the side of the plate to mix. Cover plate with plate cover and incubate for 1 hour at room temperature. Thoroughly aspirate or decant solution from wells and discard the liquid, Wash wells 4 times. Add 100 μl Anti-Rabbit IgG HRP Working Solution to each well except the chromogen blank(s). Prepare the working dilution as described in Preparing IgG HRP. Cover wells with the plate cover and incubate for 30 minutes at room temperature. Thoroughly aspirate or decant solution from wells and discard the liquid. Wash wells 4 times. Add 100 μl of Stabilized Chromogen to each well. The liquid in the wells will begin to turn blue. Incubate for 30 minutes at room temperature and in the dark. The incubation time for chromogen substrate is often determined by the microtiter plate reader used. Many plate readers have the capacity to record a maximum optical density (O.D.) of 2.0. The O.D. values should be monitored, and the substrate reaction stopped before the O.D. of the positive wells exceeds the limits of the instrument. The O.D. values at 450 nm can only be read after the Stop Solution has been added to each well. If using a reader that records only to 2.0 O.D., stopping the assay after […]
Add 100 μl of Stop Solution to each well. Tap side of plate gently to mix. The solution in the wells should change from blue to yellow. Read the absorbance of each well at 450 nm having blanked the plate reader against a chromogen blank composed of 100 μl each of Stabilized Chromogen and Stop Solution. Read the plate within 2 hours after adding the Stop Solution. Use a curve fitting software to generate the standard curve. A four-parameter algorithm provides the best standard curve fit. Read the concentrations for unknown samples and controls from the standard curve. Multiply value(s) obtained for sample(s) by the appropriate dilution factor to correct for the dilution in step 3. Samples producing signals greater than that of the highest standard should be diluted in Standard Diluent Buffer and reanalyzed. […]

## COc1ccc(C2CC(c3ccc(OCC(=O)Nc4ccc(C5=NNC(c6ccc(OC)c(OC)c6)C5)cc4)cc3)=NN2)cc1 (stereo not drawn) [Compound 12, 2-(4-(5-(4-Methoxyphenyl)-4,5-dihydro-1H-pyrazol-3-yl)phenoxy)-N-(4-(5-(3,4-dimethoxyphenyl)-4,5-dihydro-1H-pyrazol-3-yl)phenyl)acetamide]
Bax
  Bax Conc: 296 pg/mL
  Bax Fold Change: 37
caspase-3
  Caspase–3 Conc: 543.50 ± 4 pg/mL
  Caspase–3 Fold Change: 8.5

## COc1ccc(C2CC(c3ccc(NC(=O)COc4ccc(C5=NNC(c6ccc(OC)c(OC)c6)C5)cc4)cc3)=NN2)cc1 (stereo not drawn) [Compound 17, 2-(4-(5-(3,4-Dimethoxyphenyl)-4,5-dihydro-1H-pyrazol-3-yl)phenoxy)-N-(4-(5-(4-methoxyphenyl)-4,5-dihydro-1H-pyrazol-3-yl)phenyl)acetamide]
Bax
  Bax Conc: 285 pg/mL
  Bax Fold Change: 35
caspase-3
  Caspase–3 Conc: 469.50 ± 5 pg/mL and 469.50 ± 4 pg/mL
  Caspase–3 Fold Change: 7.2

## CN[C@@H]1C[C@H]2O[C@@](C)([C@@H]1OC)n1c3ccccc3c3c4c(c5c6ccccc6n2c5c31)C(=O)NC4 [Staurosporine, reference compound]
Bax
  Bax Conc: 280 pg/mL
  Bax Fold Change: 35
caspase-3
  Caspase–3 Conc: 503.00 ± 4 pg/mL
  Caspase–3 Fold Change: 8.0
